Measured values from ChEMBL document CHEMBL3885861, “Open TG-GATES”.

Species on record: Rattus norvegicus
Test: Open TG-GATES - Regimen: Daily Repeat
Format: toxicity, organism-based, Sprague-Dawley
Set-up: regimen Daily Repeat, gender Male, age 6 weeks
Details: in vivo, po, route gavage; for Fbg / Hb / Ht / Lym / MCV / Mono / Neu / Plat / RBC / Ret / WBC / Bas / Eos / MCHC / PT: tissue Blood; for ALP / ALT / AST / BUN / CRE / Ca / Cl / DBIL / GLC / IP / K / LDH / Na / PL / RALB / TBIL / TC / TG / TP / gamma-GTP: tissue Plasma
[1] = 100 mg/kg, 72 h, dose level Low, time 3 day
[2] = 100 mg/kg, […], dose level Low, time 7 day
[3] = 100 mg/kg, […], dose level Low, time 14 day
[4] = 100 mg/kg, […], dose level Low, time 28 day
[5] = 300 mg/kg, 72 h, dose level Middle, time 3 day

O=C(O)c1cccnc1 [NIACIN]
Fbg [1]: 317.2 mg/dL
Hb [1]: 13.7 g/dL
Ht [1]: 40.5%
Lym [1]: 70.2%
MCV [1]: 63.5 fL
Mono [1]: 4%
Neu [1]: 23.2%
Plat [1]: 107.5 x10_4/uL
RBC [1]: 637 x10_4/ul
Ret [1]: 6.9%
WBC [1]: 128.4 x10_2/uL
ALP [1]: 1717.8 IU/L
ALT [1]: 49 IU/L
AST [1]: 79.2 IU/L
BUN [1]: 16 mg/dL
CRE [1]: 0.1 mg/dL
Ca [1]: 10.8 mg/dL
Cl [1]: 104.2 meq/L
DBIL [1]: 0 mg/dL
GLC [1]: 199.8 mg/dL
IP [1]: 7.4 mg/dL
K [1]: 3.9 meq/L
LDH [1]: 171.8 IU/L
Na [1]: 139.2 meq/L
PL [1]: 163.8 mg/dL
RALB [1]: 3.1 g/dL
TBIL [1]: 0 mg/dL
TC [1]: 84.2 mg/dL
TG [1]: 110.8 mg/dL
TP [1]: 5.8 g/dL
gamma-GTP [1]: 1.2 IU/L
TERMINAL_BW [2]: 273.1 g
TERMINAL_BW [3]: 326.9 g
TERMINAL_BW [4]: 387.9 g
Bas [2]: 0%
Eos [2]: 1%
Fbg [2]: 316 mg/dL
Hb [2]: 13.5 g/dL
Ht [2]: 39.5%
Lym [2]: 82%
MCHC [2]: 34.1%
MCV [2]: 60.8 fL
Mono [2]: 3%
Neu [2]: 12.8%
PT [2]: 16 s
Plat [2]: 109.3 x10_4/uL
RBC [2]: 650 x10_4/ul
Ret [2]: 5.9%
WBC [2]: 109.2 x10_2/uL
Bas [3]: 0%
Eos [3]: 1%
Fbg [3]: 330.8 mg/dL
Ht [3]: 41.5%
Lym [3]: 75.2%
MCHC [3]: 34%
Mono [3]: 2.6%
Neu [3]: 20%
PT [3]: 15.8 s
Plat [3]: 107.6 x10_4/uL
RBC [3]: 685 x10_4/ul
Ret [3]: 4.7%
WBC [3]: 102.7 x10_2/uL
Bas [4]: 0%
Eos [4]: 1%
Fbg [4]: 330.4 mg/dL
Hb [4]: 15.2 g/dL
Ht [4]: 43.1%
Lym [4]: 83.4%
MCHC [4]: 35.3%
MCV [4]: 56 fL
Mono [4]: 2.4%
Neu [4]: 11.8%
PT [4]: 16.5 s
Plat [4]: 102.2 x10_4/uL
RBC [4]: 770 x10_4/ul
Ret [4]: 2.8%
WBC [4]: 117.4 x10_2/uL
ALP [2]: 1740.2 IU/L
ALT [2]: 44.4 IU/L
AST [2]: 69 IU/L
BUN [2]: 17.2 mg/dL
CRE [2]: 0.2 mg/dL
Ca [2]: 10.7 mg/dL
Cl [2]: 104.8 meq/L
DBIL [2]: 0 mg/dL
GLC [2]: 171.4 mg/dL
IP [2]: 7.3 mg/dL
K [2]: 4.7 meq/L
LDH [2]: 141 IU/L
Na [2]: 138.8 meq/L
PL [2]: 145 mg/dL
RALB [2]: 2.9 g/dL
TBIL [2]: 0 mg/dL
TC [2]: 66.6 mg/dL
TG [2]: 150 mg/dL
TP [2]: 5.5 g/dL
gamma-GTP [2]: 1.4 IU/L
ALP [3]: 1532.6 IU/L
ALT [3]: 42.8 IU/L
AST [3]: 73.6 IU/L
BUN [3]: 17 mg/dL
CRE [3]: 0.2 mg/dL
Ca [3]: 10.5 mg/dL
Cl [3]: 104.6 meq/L
DBIL [3]: 0 mg/dL
GLC [3]: 196.4 mg/dL
IP [3]: 6.4 mg/dL
K [3]: 4 meq/L
LDH [3]: 209 IU/L
Na [3]: 138.4 meq/L
PL [3]: 144.4 mg/dL
RALB [3]: 3 g/dL
TBIL [3]: 0.002 mg/dL
TC [3]: 66.8 mg/dL
TG [3]: 150.8 mg/dL
TP [3]: 5.8 g/dL
gamma-GTP [3]: 1.4 IU/L
ALP [4]: 1249.8 IU/L
ALT [4]: 39.8 IU/L
AST [4]: 64.6 IU/L
BUN [4]: 18.2 mg/dL
CRE [4]: 0.2 mg/dL
Ca [4]: 10.4 mg/dL
Cl [4]: 107 meq/L
DBIL [4]: 0 mg/dL
GLC [4]: 192.8 mg/dL
IP [4]: 6.5 mg/dL
K [4]: 4.2 meq/L
LDH [4]: 129.4 IU/L
Na [4]: 143.4 meq/L
PL [4]: 147.6 mg/dL
RALB [4]: 3.1 g/dL
TBIL [4]: 0.014 mg/dL
TC [4]: 70.6 mg/dL
TG [4]: 158.8 mg/dL
TP [4]: 6 g/dL
gamma-GTP [4]: 2 IU/L
TERMINAL_BW [5]: 241.8 g
Bas [5]: 0%
